In brackets after ≈: the same amount, converted by molar mass. Like-named read-outs stand apart in the source and are kept apart here.
Columns and labels:
P. aeruginosa ATCC 9027 = experiment: Antibacterial activity, pre-exposure; assay type: cell-based, Pseudomonas aeruginosa; settings: for Average inhibition %, biofilms viability / Average inhibition %, planktonic cells viability / inhibition at 50 µM / inhibition at 100 µM / inhibition at 150 µM / inhibition at 200 µM: P. aeruginosa ATCC 9027, pre-exposure, ± SD; for inhibition at 50 µM / inhibition at 100 µM / inhibition at 150 µM / inhibition at 200 µM: Pseudomonas aeruginosa, ATCC9027
Procedure: (§1) The antimicrobial activity was assessed in a similar way for the initial screening and the dose–response evaluation against different bacterial strains. With the exception of the post-exposure experiment, the compounds were added to the wells along with the bacteria to test the ability of compounds to prevent bacterial growth and biofilm formation (pre-exposure). The compounds were diluted in DMSO and plated directly in 96-well plates before adding the bacterial culture, and plates were incubated for 18 h under aerobic conditions at 37 °C with shaking (220 rpm). The antibacterial activity of the compounds was assessed on planktonic cells and biofilms separately using two different measurements for each: optical density (turbidity) and resazurin reduction (viability) on planktonic cells and resazurin followed by a crystal violet staining assay (total biomass) on biofilms, as described in the following sections.
(§2) The resazurin staining was performed according to the protocol previously optimized with a few modifications.[46] Briefly, the planktonic solution was first transferred into a new 96-well plate and the OD of the planktonic solution was measured using a Varioskan LUX Multimode microplate reader (Thermo Scientific, Vantaa, Finland). Then, 10 μL of a 400 μM resazurin (R7017, Sigma-Aldrich, St. Louis, MO) diluted in phosphate-buffered saline (PBS) (Thermo Fisher Scientific, MA) was added to the wells (for a final resazurin concentration of 20 μM). The plate was incubated in the dark with shaking (220 rpm) for about 3–10 min at room temperature with S. aureus and A. baumannii (until the bacteria controls turned pink) or for 20 min at 37 °C with P. aeruginosa. Fluorescence was measured at λex = 560 nm and λem = 590 nm using the top optics of the Varioskan LUX Multimode microplate reader. The planktonic plate was then discarded. The original challenge plate containing the biofilms was washed once with PBS, and 200 μL of a 20 μM resazurin solution was added to the wells. The plate was incubated in the dark at 37 °C with shaking (220 rpm) for 30 min with S. aureus, 60 min with A. baumannii, and 90 min with P. aeruginosa. Fluorescence was measured as described for the planktonic solution. The biofilms were next treated with crystal violet staining.
(§3) After removing the resazurin solution from the plate, biofilms were fixed with ethanol 100% for 15 min at room temperature. Ethanol was then removed, and the biofilms were left to air-dry completely at RT. Crystal violet, diluted to 1:100 in deionized water from the 2.3% commercial solution (HT90132, Sigma-Aldrich, St. Louis, MO), was added to the wells and, after a 5 min incubation with the dye, the biofilms were washed twice with deionized water and left to air-dry for about 10 min. The dye was solubilized in ethanol 100% for 1 h, and absorbance was measured at 595 nm using a Multiskan Sky microplate spectrophotometer (Thermo Scientific, Vantaa, Finland).

A. baumannii NCTC 13423 = experiment: Antibacterial activity, pre-exposure; assay type: cell-based, Acinetobacter baumannii; settings: for Average inhibition %, biofilms viability / Average inhibition %, planktonic cells viability / inhibition at 10 µM / inhibition at 15 µM / inhibition at 25 µM / inhibition at 50 µM: A. baumannii NCTC 13423, pre-exposure, ± SD; for inhibition at 10 µM / inhibition at 15 µM / inhibition at 25 µM / inhibition at 50 µM: Acinetobacter baumannii, NCTC13423
Procedure: as §1, §2, §3

S. aureus ATCC 25923 [1] = experiment: Antibacterial activity, pre-exposure (planktonic cells and biofilm formation); assay type: cell-based, Staphylococcus aureus; settings: for MIC / inhibition at 5 µM / inhibition at 10 µM / inhibition at 15 µM / inhibition at 25 µM: Staphylococcus aureus, ATCC25923; for inhibition at 5 µM / inhibition at 10 µM / inhibition at 15 µM / inhibition at 25 µM / Average inhibition %, biofilms viability / Average inhibition %, planktonic cells viability: pre-exposure, ± SD
Procedure: as §1, §2, §3

S. aureus ATCC 25923 [2] = experiment: Antibacterial activity, post-exposure on preformed 18-h-old biofilms; assay type: cell-based, Staphylococcus aureus; settings: ± SD; for inhibition at 25 µM / inhibition at 50 µM / inhibition at 100 µM / inhibition at 200 µM: Staphylococcus aureus; for inhibition at 25 µM: ATCC25923, 25 µM; for inhibition at 50 µM: ATCC25923, 50 µM; for inhibition at 100 µM: ATCC25923, 100 µM; for inhibition at 200 µM: ATCC25923, 200 µM
Procedure: For the post-exposure experiment, bacteria were grown with no compounds in the same conditions for 18 h, after which the media was changed, and compounds were added on the preformed biofilms. The plates were then incubated in the same conditions for an additional 24 h before proceeding to the staining assays.
as §2, §3

[3] = 50 µM, read-out: Average inhibition %, biofilms biomass
[4] = 50 µM, read-out: Average inhibition %, planktonic cells turbidity
[5] = 10 µM, read-out: Average inhibition %, biofilms biomass
[6] = 10 µM, read-out: Average inhibition %, planktonic cells turbidity
[7] = 15 µM, read-out: Average inhibition %, biofilms biomass
[8] = 15 µM, read-out: Average inhibition %, planktonic cells turbidity
[9] = 25 µM, read-out: Average inhibition %, biofilms biomass
[10] = 25 µM, read-out: Average inhibition %, planktonic cells turbidity
[11] = read-out: Average inhibition %, biofilms biomass
[12] = read-out: Average inhibition %, planktonic cells turbidity

MIC P. aeruginosa ATCC 9027 (P. aeruginosa ATCC 9027; pre-exposure, Inactive = no activity up to 200 μM, > = some inhibition but no MIC reached): Inactive
MIC A. baumannii NCTC 13423 (A. baumannii NCTC 13423; pre-exposure, Inactive = no activity up to 50 μM, > = some inhibition but no MIC reached): Inactive ^d
MIC (S. aureus ATCC 25923 [1]; lowest concentration with no visible growth (>90% inhibition of turbidity and viability of planktonic cells), 18 h, read-out: MIC S. aureus ATCC 25923): 10 to 15 µM (≈ 3.36 to 5.03 µg/mL)
MIC (S. aureus ATCC 25923 [1]; read-out: MIC (S. aureus)): 10 to 15 µM (≈ 3.36 to 5.03 µg/mL)
Compound: CCCCCCCCCCc1ccc(CCC(N)(CO)CO)cc1 [Compound 11, 2-Amino-2-(4-decylphenethyl)propane-1,3-diol]
Average inhibition %, biofilms viability (P. aeruginosa ATCC 9027; 50 µM): 0 ± 0%
Average inhibition %, planktonic cells viability (P. aeruginosa ATCC 9027; 50 µM): 26.2 ± 4.1%
Average inhibition %, biofilms viability (P. aeruginosa ATCC 9027; 100 µM): 0 ± 0%
Average inhibition %, planktonic cells viability (P. aeruginosa ATCC 9027; 100 µM): 6.4 ± 11.1%
Average inhibition %, biofilms viability (P. aeruginosa ATCC 9027; 150 µM): 0 ± 0%
Average inhibition %, planktonic cells viability (P. aeruginosa ATCC 9027; 150 µM): 10.3 ± 9.3%
Average inhibition %, biofilms viability (P. aeruginosa ATCC 9027; 200 µM): 0 ± 0%
Average inhibition %, planktonic cells viability (P. aeruginosa ATCC 9027; 200 µM): 1.2 ± 2%
inhibition at 50 µM (P. aeruginosa ATCC 9027; [3]): 8.3 ± 5.9%
inhibition at 50 µM (P. aeruginosa ATCC 9027; [4]): 22.2 ± 20.1%
inhibition at 100 µM (P. aeruginosa ATCC 9027; 100 µM, read-out: Average inhibition %, biofilms biomass): 13 ± 13.3%
inhibition at 100 µM (P. aeruginosa ATCC 9027; 100 µM, read-out: Average inhibition %, planktonic cells turbidity): 20.4 ± 17.1%
inhibition at 150 µM (P. aeruginosa ATCC 9027; 150 µM, read-out: Average inhibition %, biofilms biomass): 12.1 ± 11.1%
inhibition at 150 µM (P. aeruginosa ATCC 9027; 150 µM, read-out: Average inhibition %, planktonic cells turbidity): 7.6 ± 5.1%
inhibition at 200 µM (P. aeruginosa ATCC 9027; 200 µM, read-out: Average inhibition %, biofilms biomass): 3.1 ± 4.2%
inhibition at 200 µM (P. aeruginosa ATCC 9027; 200 µM, read-out: Average inhibition %, planktonic cells turbidity): 13.4 ± 11.7%
Average inhibition %, biofilms viability (A. baumannii NCTC 13423; 10 µM): 0 ± 0%
Average inhibition %, planktonic cells viability (A. baumannii NCTC 13423; 10 µM): 11.8 ± 6%
Average inhibition %, biofilms viability (A. baumannii NCTC 13423; 15 µM): 0.8 ± 1.4%
Average inhibition %, planktonic cells viability (A. baumannii NCTC 13423; 15 µM): 13.2 ± 6.7%
Average inhibition %, biofilms viability (A. baumannii NCTC 13423; 25 µM): 3.6 ± 5.6%
Average inhibition %, planktonic cells viability (A. baumannii NCTC 13423; 25 µM): 10.3 ± 9%
Average inhibition %, biofilms viability (A. baumannii NCTC 13423; 50 µM): 21.4 ± 1.1%
Average inhibition %, planktonic cells viability (A. baumannii NCTC 13423; 50 µM): 0.1 ± 0.1%
inhibition at 10 µM (A. baumannii NCTC 13423; [5]): 5.1 ± 8.9%
inhibition at 10 µM (A. baumannii NCTC 13423; [6]): 0%
inhibition at 15 µM (A. baumannii NCTC 13423; [7]): 0%
inhibition at 15 µM (A. baumannii NCTC 13423; [8]): 0%
inhibition at 25 µM (A. baumannii NCTC 13423; [9]): 5.1 ± 4.6%
inhibition at 25 µM (A. baumannii NCTC 13423; [10]): 0%
inhibition at 50 µM (A. baumannii NCTC 13423; [3]): 15.9 ± 13.8%
inhibition at 50 µM (A. baumannii NCTC 13423; [4]): 0%
Initial screening result (active = at least 60% inhibition of planktonic cells and biofilm formation) (S. aureus ATCC 25923 [1]; 50 μM, S. aureus): active
inhibition at 5 µM (S. aureus ATCC 25923 [1]; 5 µM, read-out: Average inhibition %, biofilms biomass): 40.1 ± 36.6%
inhibition at 5 µM (S. aureus ATCC 25923 [1]; 5 µM, read-out: Average inhibition %, planktonic cells turbidity): 12.5 ± 12.4%
inhibition at 10 µM (S. aureus ATCC 25923 [1]; [5]): 75.6 ± 20.8%
inhibition at 10 µM (S. aureus ATCC 25923 [1]; [6]): 70.4 ± 40%
inhibition at 15 µM (S. aureus ATCC 25923 [1]; [7]): 87.1 ± 9.9%
inhibition at 15 µM (S. aureus ATCC 25923 [1]; [8]): 97.5 ± 1.9%
inhibition at 25 µM (S. aureus ATCC 25923 [1]; [9]): 89 ± 0.7%
inhibition at 25 µM (S. aureus ATCC 25923 [1]; [10]): 97.9 ± 1.2%
Average inhibition %, biofilms viability (S. aureus ATCC 25923 [1]; 5 µM): 41.8 ± 9.7%
Average inhibition %, planktonic cells viability (S. aureus ATCC 25923 [1]; 5 µM): 17 ± 23.3%
Average inhibition %, biofilms viability (S. aureus ATCC 25923 [1]; 10 µM): 72.2 ± 23.8%
Average inhibition %, planktonic cells viability (S. aureus ATCC 25923 [1]; 10 µM): 73.3 ± 34.2%
Average inhibition %, biofilms viability (S. aureus ATCC 25923 [1]; 15 µM): 84.9 ± 24.9%
Average inhibition %, planktonic cells viability (S. aureus ATCC 25923 [1]; 15 µM): 98.5 ± 1.7%
Average inhibition %, biofilms viability (S. aureus ATCC 25923 [1]; 25 µM): 93.8 ± 10.1%
Average inhibition %, planktonic cells viability (S. aureus ATCC 25923 [1]; 25 µM): 99.2 ± 1.3%
Average inhibition %, biofilms viability (S. aureus ATCC 25923 [2]; 25 µM): 10.2 ± 8.5%
Average inhibition %, planktonic cells viability (S. aureus ATCC 25923 [2]; 25 µM): 0 ± 0%
Average inhibition %, biofilms viability (S. aureus ATCC 25923 [2]; 50 µM): 17.5 ± 9%
Average inhibition %, planktonic cells viability (S. aureus ATCC 25923 [2]; 50 µM): 0 ± 0%
Average inhibition %, biofilms viability (S. aureus ATCC 25923 [2]; 100 µM): 24.8 ± 10.2%
Average inhibition %, planktonic cells viability (S. aureus ATCC 25923 [2]; 100 µM): 6 ± 10.4%
Average inhibition %, biofilms viability (S. aureus ATCC 25923 [2]; 200 µM): 25.8 ± 8.3%
Average inhibition %, planktonic cells viability (S. aureus ATCC 25923 [2]; 200 µM): 30.5 ± 9.5%
inhibition at 25 µM (S. aureus ATCC 25923 [2]; [11]): 32.6 ± 5.1%
inhibition at 25 µM (S. aureus ATCC 25923 [2]; [12]): 8.9 ± 8.2%
inhibition at 50 µM (S. aureus ATCC 25923 [2]; [11]): 35.4 ± 2.7%
inhibition at 50 µM (S. aureus ATCC 25923 [2]; [12]): 14 ± 4.2%
inhibition at 100 µM (S. aureus ATCC 25923 [2]; [11]): 48.9 ± 4.7%
inhibition at 100 µM (S. aureus ATCC 25923 [2]; [12]): 16.2 ± 8.6%
inhibition at 200 µM (S. aureus ATCC 25923 [2]; [11]): 47.6 ± 7.1%
inhibition at 200 µM (S. aureus ATCC 25923 [2]; [12]): 22.2 ± 12.7%
